In the CheMixHub ionic liquid set:
Where “and” joins values, the source holds several entries; their conditions need not be identical. Equal values may be shown once.

Test: xn = mol fraction of the nth substance listed

CCCCCCCCCCCCCCCC[n+]1ccccc1.O=C([O-])c1ccccc1O + NCC(=O)O + O
electrical conductivity [S/m], 101 kPa
Details | 293.15 K | 298.15 K | 303.15 K | 308.15 K | 313.15 K
x2 = 0.0009002, x1 = 5.4e-07 | 0.000445 | 0.000504 | 0.00057 | 0.000642 | 0.000723
x2 = 0.0009002, x1 = 1.26e-06 | 0.00068 | 0.000773 | 0.00087 | 0.000972 | 0.00108
x2 = 0.0009002, x1 = 1.63e-06 | 0.000841 | 0.000952 | 0.00107 | 0.0012 | 0.00134
x2 = 0.0009002, x1 = 1.99e-06 | 0.000997 | 0.00113 | 0.00127 | 0.00141 | 0.00156
x2 = 0.0009002, x1 = 2.35e-06 | 0.00114 | 0.00129 | 0.00145 | 0.00161 | 0.00179
x2 = 0.0009002, x1 = 2.89e-06 | 0.00127 | 0.00145 | 0.00164 | 0.00184 | 0.00205
x2 = 0.0009002, x1 = 3.43e-06 | 0.00141 | 0.00161 | 0.00185 | 0.00211 | 0.00234
x2 = 0.0009002, x1 = 4.16e-06 | 0.00157 | 0.0018 | 0.00206 | 0.00234 | 0.00264
x2 = 0.0009002, x1 = 4.88e-06 | 0.00173 | 0.00198 | 0.00226 | 0.00258 | 0.00292
x2 = 0.0009002, x1 = 5.6e-06 | 0.0019 | 0.00216 | 0.00247 | 0.00281 | 0.00318
x2 = 0.0009002, x1 = 6.32e-06 | 0.00205 | 0.00234 | 0.00267 | 0.00302 | 0.00343
x2 = 0.0009002, x1 = 6.87e-06 | – | – | – | – | 0.00364
x2 = 0.0009002, x1 = 7.05e-06 | 0.00217 | 0.0025 | 0.00284 | 0.00321 | –
x2 = 0.0009002, x1 = 7.59e-06 | 0.00232 | 0.00264 | 0.003 | 0.00339 | 0.00383
x2 = 0.0009002, x1 = 8.13e-06 | 0.00244 | 0.00278 | 0.00314 | 0.00356 | 0.00402
x2 = 0.0009002, x1 = 8.67e-06 | 0.00258 | 0.00292 | 0.00331 | 0.00374 | 0.00421
x2 = 0.001799, x1 = 3.6e-07 | 0.000498 | 0.000578 | 0.00067 | 0.000776 | 0.0009
x2 = 0.001799, x1 = 9.1e-07 | 0.000684 | 0.000791 | 0.00091 | 0.00104 | 0.00119
x2 = 0.001799, x1 = 1.45e-06 | 0.000895 | 0.00102 | 0.00117 | 0.00132 | 0.0015
x2 = 0.001799, x1 = 1.99e-06 | 0.0011 | 0.00125 | 0.00141 | 0.0016 | 0.0018
x2 = 0.001799, x1 = 2.17e-06 | 0.00119 | 0.00135 | 0.00153 | 0.00172 | 0.00194
x2 = 0.001799, x1 = 2.54e-06 | 0.00127 | 0.00145 | 0.00166 | 0.00187 | 0.00209
x2 = 0.001799, x1 = 2.72e-06 | 0.00134 | 0.00155 | 0.00178 | 0.002 | 0.00225
x2 = 0.001799, x1 = 3.08e-06 | 0.0014 | 0.00162 | 0.00186 | 0.0021 | 0.00237
x2 = 0.001799, x1 = 3.26e-06 | – | – | 0.00195 | 0.00223 | 0.00251
x2 = 0.001799, x1 = 3.44e-06 | 0.00146 | 0.00169 | – | – | –
x2 = 0.001799, x1 = 3.81e-06 | 0.00155 | 0.0018 | 0.00206 | 0.00236 | 0.00267
x2 = 0.001799, x1 = 4.35e-06 | 0.00167 | 0.00192 | 0.0022 | 0.00253 | 0.00287
x2 = 0.001799, x1 = 4.89e-06 | 0.00179 | 0.00206 | 0.00236 | 0.0027 | 0.00307
x2 = 0.001799, x1 = 5.44e-06 | 0.00192 | 0.0022 | 0.00252 | 0.00289 | 0.00328
x2 = 0.001799, x1 = 5.98e-06 | 0.00202 | 0.00232 | 0.00265 | 0.00303 | 0.00344
x2 = 0.001799, x1 = 6.34e-06 | – | – | – | – | 0.00359
x2 = 0.001799, x1 = 6.52e-06 | 0.00213 | 0.00244 | 0.00278 | 0.00316 | –

CCCCCCCCn1cc[n+](C)c1.F[B-](F)(F)F + CCC(C)=O
298.15 K, 101 kPa
Details | viscosity [mPa·s]
x2 = 0.101 | 188
x2 = 0.4505 | 24.78
x2 = 0.7023 | 5.04
x2 = 0.8033 | 2.29
x2 = 0.899 | 1.03

CCCC[n+]1ccn(C)c1.[Cl-] + CN(C)C=O
101 kPa
Details | electrical conductivity [S/m] | viscosity [mPa·s]
293.15 K, x2 = 0.9 | – | 3.4
298.15 K, x1 = 0.0172 | – | 0.98
298.15 K, x2 = 0.5541 | 0.322 | 41.1
298.15 K, x2 = 0.975 | 0.574 | 0.96
303.15 K, x2 = 0.5056 | – | 52.3
303.15 K, x2 = 0.6034 | – | 21.3
303.15 K, x2 = 0.7982 | – | 4.15
303.15 K, x2 = 0.9503 | – | 1.14
308.15 K, x1 = 0.0086 | – | 0.82
308.15 K, x2 = 0.8014 | – | 3.51
308.15 K, x2 = 0.8999 | – | 1.53
308.15 K, x2 = 0.974 | – | 0.94

CC(C)O + CC[n+]1ccn(CCOC)c1.O=S(=O)([O-])C(F)(F)F
101 kPa, x2 = 0
Details | viscosity [mPa·s]
288.15 K | 2.806
293.15 K | 2.397
298.15 K | 2.059
303.15 K | 1.777
308.15 K | 1.542
313.15 K | 1.344
318.15 K | 1.176

CCCCCCCCCCCCCC[P+](CCCCCC)(CCCCCC)CCCCCC.O=S(=O)([N-]S(=O)(=O)C(F)(F)F)C(F)(F)F + CCCCCC[n+]1ccn(C)c1.O=S(=O)([N-]S(=O)(=O)C(F)(F)F)C(F)(F)F
100 kPa
Details | viscosity [mPa·s]
278.15 K, x2 = 0.404 | 870
283.15 K, x2 = 0.097 | 770

CC(=O)[O-].CC[NH3+] + O
298.15 K, 101 kPa
Details | electrical conductivity [S/m]
x2 = 0.6519 | 1.55
x2 = 0.8802 | 2.91
x2 = 0.9004 | 3.01
x2 = 0.91 | 3.05
x2 = 0.93 | 3.06

CCCCCCCC[N+](C)(CCCCCCCC)CCCCCCCC.[Cl-] + COC(=O)OC
101 kPa
Details | electrical conductivity | viscosity [mPa·s]
298.15 K, x1 = 0.002 | 0.00012 S/m | –
298.15 K, x1 = 0.006 | 0.000267 S/m | –
298.15 K, x1 = 0.011 | 0.000601 S/m | –
298.15 K, x1 = 0.015 | 0.000944 S/m | –
298.15 K, x2 = 0 | 0.0026 S/m | 2391
298.15 K, x2 = 0.67 | 0.015 S/m | 58.07
298.15 K, x2 = 0.88 | 0.026 S/m | 5.19
298.15 K, x2 = 0.98 | 0.00126 S/m | –
303.15 K, x1 = 0.002 | 0.000143 S/m | –
303.15 K, x1 = 0.006 | 0.000346 S/m | –
303.15 K, x1 = 0.011 | 0.00075 S/m | –
303.15 K, x1 = 0.015 | 0.00122 S/m | –
303.15 K, x2 = 0.55 | 0.0126 S/m | 123.5
303.15 K, x2 = 0.98 | 0.00161 S/m | –
308.15 K, x1 = 0.002 | 0.000199 S/m | –
308.15 K, x1 = 0.006 | 0.00043 S/m | –
308.15 K, x2 = 0.76 | 0.0317 S/m | 15.98
308.15 K, x2 = 0.95 | 0.0116 S/m | 1.21
308.15 K, x2 = 0.98 | 0.0017 S/m and 0.00175 S/m | 0.71
313.15 K, x1 = 0.006 | 0.0005 S/m | –
313.15 K, x1 = 0.011 | 0.00105 S/m | –
313.15 K, x2 = 0.55 | 0.0201 S/m | 78.5
313.15 K, x2 = 0.92 | 0.0292 S/m | 1.9
313.15 K, x2 = 0.98 | 0.00188 S/m and 0.0019 S/m | 0.67
318.15 K, x1 = 0.002 | 0.000399 S/m | –
318.15 K, x1 = 0.006 | 0.00062 S/m | –
318.15 K, x1 = 0.011 | 0.00115 S/m | –
318.15 K, x2 = 0.98 | 0.00197 S/m | –

CCCC[n+]1ccn(C)c1.COP(=O)([O-])OC + O
101 kPa
Details | viscosity [mPa·s]
298.15 K, x2 = 0.398 | 251
303.15 K, x2 = 0.201 | 291
303.15 K, x2 = 0.601 | 81.6
313.15 K, x2 = 0.799 | 15.81
318.15 K, x2 = 0.398 | 78.8
328.15 K, x2 = 0.398 | 49.68
